According to US9868728B2, “Quinazoline derivatives, compositions, and uses related thereto” (Emory University, priority 2010, dated 2018):

Biological target: T1, NOX2 (Homo sapiens, UniProt P04839)
T1 construct: isolated plasma membranes from human neutrophils as a source for Nox2-p22phox; from tissue; host or cells: Plasma membranes of human neutrophils (Nox2-p22phox); cytosolic factors recombinant from E. coli
T1 sequence (P04839 2-570 limits assumed): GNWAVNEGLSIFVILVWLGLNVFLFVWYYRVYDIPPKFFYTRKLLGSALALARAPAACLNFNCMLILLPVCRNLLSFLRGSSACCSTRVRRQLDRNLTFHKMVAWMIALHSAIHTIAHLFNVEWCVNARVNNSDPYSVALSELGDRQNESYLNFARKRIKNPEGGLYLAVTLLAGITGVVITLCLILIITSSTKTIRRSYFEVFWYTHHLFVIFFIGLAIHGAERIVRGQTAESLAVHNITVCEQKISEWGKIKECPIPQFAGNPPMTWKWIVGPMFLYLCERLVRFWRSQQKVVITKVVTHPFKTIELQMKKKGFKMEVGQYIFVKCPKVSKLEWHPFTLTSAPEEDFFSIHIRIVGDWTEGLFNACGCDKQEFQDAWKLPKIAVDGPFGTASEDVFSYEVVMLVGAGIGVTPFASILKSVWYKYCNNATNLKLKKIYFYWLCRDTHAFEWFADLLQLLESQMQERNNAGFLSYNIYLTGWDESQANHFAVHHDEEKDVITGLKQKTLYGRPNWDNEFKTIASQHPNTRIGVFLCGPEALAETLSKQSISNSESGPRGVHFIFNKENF
T1 sequence (P13498 2-195 partner limits assumed): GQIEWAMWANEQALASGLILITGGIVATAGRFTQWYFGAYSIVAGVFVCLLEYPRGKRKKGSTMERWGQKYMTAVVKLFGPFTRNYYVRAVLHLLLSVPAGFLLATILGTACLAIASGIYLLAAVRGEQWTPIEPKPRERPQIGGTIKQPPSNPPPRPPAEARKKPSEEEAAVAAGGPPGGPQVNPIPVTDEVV
Test: Nox2 cell-free assay (LO12 luminescence)
Type: biochemical
Details: Nox2 cell-free system; for IC50: read-out: NOX2 IC50 (concentration giving half-maximal inhibition); for Emax: read-out: % inhibition (maximum inhibition achieved at a very high concentration of the compound)
Experimental: The following compounds were tested according to the procedures provided in the experimental section. Assays were carried out using the Nox2 cell-free system. The IC50 value is the concentration giving half-maximal inhibition, while the “% inhibition” shown in parentheses is the maximum inhibition achieved at a very high concentration of the compound. 100% refers to complete inhibition within experimental error of the assay.
In certain assays a Cell-Free recombinant NOX-2 system (consisting of isolated plasma membranes from human neutrophils as a source for Nox2-p22phox, supplemented with recombinant p47phox, p67phox and Rac1Q61L (activated Rac), expressed in and isolated from of E. coli. LO12 luminescence was used as a readout to monitor enzymatic activity.
Plasma membranes were prepared from human neutrophils, which express large amounts of Nox2 and stored at −80 C until use. Membranes are mixed with recombinant, purified cytosolic regulatory proteins (p67Np47 chimera, and constitutively active Rac1 mutant Q61) and FAD, along with varying concentrations of compound, and LO12, which luminesces when it reacts with ROSvi. The reaction is started by addition of NADPH and SDS (an artificial stimulus for Nox2). See Curnutte et al., (1987) J. Biol. Chem. 262: 6450-6452.

SMILES	IC50 [nM]	Emax (value in parentheses) [%]	NOX2 IC50 (concentration giving half-maximal inhibition)	% inhibition (maximum inhibition achieved at a very high concentration of the compound) (value in parentheses) [%]
Nn1c(=S)[nH]c2cc3c(cc2c1=O)OCO3 [AS2-014b]	600	–	–	–
COc1cc2[nH]c(=S)n(C#N)c(=O)c2cc1OC [TG6-295-2]	200	–	–	–
CCOc1cc2c(=O)n(N)c(=S)[nH]c2cc1OC [AS2-001]	1000	–	–	–
CN(C)CCCn1c(=S)[nH]c2cc(Cl)ccc2c1=O [TG6-62]	5000	90	–	–
CCN(CC)CCn1c(=S)[nH]c2ccccc2c1=O [TG6-27-2]	5500	97	–	–
CN(C)CCCn1c(OCC(=O)N2CCOCC2)nc2ccccc2c1=O [TG6-76]	> 20000	–	–	–
Cc1csc(NC(=O)CSc2nc3ccccc3c(=O)n2CCCN(C)C)n1 [TG6-18]	> 10000	–	–	–
COc1ccc(N(C)CCCn2c(=S)[nH]c3ccc(F)cc3c2=O)cc1 [TG6-30]	100	50	–	–
Nn1c(=S)[nH]c2cc3c(cc2c1=O)OCCO3 [AS2-014a]	600	–	–	–
O=c1c2cc(Cl)ccc2[nH]c(=S)n1CCCN1CCCCC1 [TG6-172]	1100	–	–	–
O=c1c2cc(Cl)ccc2[nH]c(=S)n1CCN1CCCCC1 [TG6-66]	1500	50	–	–
CN(C)c1cccc(-n2c(=S)[nH]c3ccc(Cl)cc3c2=O)c1 [TG6-285]	1300	–	–	–
O=c1c2ccccc2[nH]c(=S)n1CCN1CCCCC1 [TG6-53]	1500	90	–	–
CC(Sc1nc2ccccc2c(=O)n1CCCO)C(=O)Nc1nc(-c2ccccc2)cs1 (centres unmarked) [Sample T5826778]	> 10000	90	–	–
COc1ccc(N(C)CCCNC(=O)c2cc(F)ccc2N)cc1 [TG6-30-2]	200	–	–	–
N#CCCCCSc1nc2ccccc2c(=O)n1CCN1CCCCC1 [TG6-101]	–	–	Not active	–
COC(=O)c1ccc2c(=O)n(N)c(=S)[nH]c2c1 [AS-261B]	500	–	–	–
CC(Sc1nc2ccccc2c(=O)n1CCCN(C)C)C(=O)Nc1nc(-c2cccc(Br)c2)cs1 (centres unmarked) [TG6-73]	> 20000	50	–	–
CN(C)CCCn1c(SCC(=O)Nc2nc(-c3ccc(Br)cc3)cs2)nc2ccsc2c1=O [AS-256]	15000	–	–	–
COC(=O)c1ccc2c(=O)n(N(C)C)c(=S)[nH]c2c1 [AS-266]	6000	–	–	–
CN(C)CCCn1c(SCC(=O)Nc2nc(-c3ccc(Br)cc3)cs2)nc2c(c1=O)CCCC2 [AS-260]	17500	–	–	–
CCN(CC)CCCn1c(SCC(=O)Nc2nc(-c3cccc(C(F)(F)F)c3)cs2)nc2ccccc2c1=O [AS165b]	> 10000	80	–	–
O=C(c1ccc(F)cc1)N1CCN(CCn2c(=S)[nH]c3ccc(Cl)cc3c2=O)CC1 [TG6-173]	2000	–	–	–
CSc1nc2ccc(F)cc2c(=O)n1CCC[N+](C)(C)C [TG6-103-2]	1000	100	–	–
Nn1c(=S)[nH]c2ccccc2c1=O [AS-247]	1800	–	–	–
CN(C)CCCCn1c(SCC(=O)Nc2nc(-c3cccc(Br)c3)cs2)nc2ccccc2c1=O [AS195]	3000	100	–	–
COc1ccc(N2CCN(CCn3c(=S)[nH]c4cc(OC)c(OC)cc4c3=O)CC2)cc1 [TG7-29]	700	–	–	–
CC(C)n1c(=S)[nH]c2cc3c(cc2c1=O)OCCO3 [TG6-272]	700	–	–	–

The remaining lines, values ahead:

IC50 [nM]	Emax (value in parentheses) [%]	NOX2 IC50 (concentration giving half-maximal inhibition)	% inhibition (maximum inhibition achieved at a very high concentration of the compound) (value in parentheses) [%]	SMILES
5000	50	–	–	CN(C)CCCCCn1c(=S)[nH]c2ccccc2c1=O [TG6-41]
700	–	–	–	CC(C)n1c(=S)[nH]c2cc(F)c(F)cc2c1=O [TG6-284-2]
2000	60	–	–	COc1cc2[nH]c(=S)n(CCCN(C)C)c(=O)c2cc1OC [TG6-63]
1500	100	–	–	CSc1nc2ccccc2c(=O)n1CCC[N+]1(C)CCOCC1 [TG6-103-1]
600	–	–	–	CN(C)CCCn1c(=S)[nH]c2ccc(F)cc2c1=O [TG6-248]
8000	–	–	–	CCCn1c(=S)[nH]c2ccc(Cl)cc2c1=O [TG6-280]
> 10000	90	–	–	Cc1ccc(-c2csc(NC(=O)CSc3nc4ccccc4c(=O)n3CCCN(C)C)n2)cc1 [Sample T5306350]
–	–	Not active	–	CN(C)CCCn1c(=S)[nH]c2c(Cl)cc(Cl)cc2c1=O [TG6-65]
> 20000	40	–	–	CCCN(CCC)CCCn1c(SCC(=O)Nc2nc(-c3cccc(Br)c3)cs2)nc2ccccc2c1=O [AS173b]
5000	90	–	–	CN(C)CCCn1c(SCC(=O)Nc2nc(-c3cccc(Br)c3)cs2)nc2ccc(Cl)cc2c1=O [TG6-58]
800	–	–	–	CN(C)CCCn1c(=S)[nH]c2cc3c(cc2c1=O)OCCO3 [TG6-290-1]
–	–	Not active	–	CN(C)CCCn1c(SCC(=O)Nc2nc(-c3cccc(C#N)c3)cs2)nc2ccccc2c1=O [AS188]
1500	60	–	–	CN(C)CCCn1c(=S)[nH]c2ccc(F)cc2c1=O [TG6-79]
1500	99	–	–	CCSC1Nc2ccccc2C(=O)N1CCC[N+]1(CC)CCOCC1 (centres unmarked) [TG6-99-2]
200	–	–	–	COc1cc2[nH]c(=S)n(N)c(=O)c2cc1OC [AS-261A, 3-Amino-6,7-dimethoxy-2-thioxo-2,3-dihydroquinazolin-4(1H)-one]
200	–	–	–	COc1ccc(N(C)CCCn2c(=S)[nH]c3ccc(Cl)cc3c2=O)cc1 [TG7-25]
2500	–	–	–	COc1cc2[nH]c(=S)n(N(C)C)c(=O)c2cc1OC [AS-268]
11000	95	–	–	COc1ccc(-c2csc(NC(=O)CSc3nc4ccccc4c(=O)n3CCCN(C)C)n2)cc1 [TG6-36-2]
1500	95	–	–	CSc1nc2ccccc2c(=O)n1CCC[N+](C)(C)C [TG6-67]
6500	60	–	–	CN(C)CCCn1c(=S)[nH]c2ccccc2c1=O [TG6-17-2]
700	–	–	–	CCn1c(=S)[nH]c2ccc(F)cc2c1=O [TG6-269-1]

IC50 [nM]	Emax (value in parentheses) [%]	NOX2 IC50 (concentration giving half-maximal inhibition)	% inhibition (maximum inhibition achieved at a very high concentration of the compound) (value in parentheses) [%]	SMILES
400	–	–	–	CN(C)CCCn1c(=S)[nH]c2cc(F)c(F)cc2c1=O [TG6-250]
> 10000	–	–	–	O=C(O)CCCn1c(SCC(=O)Nc2nc(-c3ccccc3)cs2)nc2ccccc2c1=O [AS140]
2000	80	–	–	O=c1c2ccccc2[nH]c(=S)n1CCCN1CCOCC1 [TG6-54]
–	–	Not active	–	CCCN(CCC)CCn1c(=S)[nH]c2ccccc2c1=O [TG6-56]
4000	50	–	–	CN(C)CCn1c(=S)[nH]c2ccccc2c1=O [TG6-35-2]
–	–	Not active	–	CN(C)CCCn1c(SC(=O)N2CCN(C)CC2)nc2ccccc2c1=O [TG6-71]
1000	60	–	–	CN(C)CCCn1c(=S)[nH]c2cc(F)c(F)cc2c1=O [TG6-64]
600	–	–	–	O=c1c2cc(Cl)ccc2[nH]c(=S)n1CCCN1CCCCC1 [TG6-243]
–	–	Not active	–	CCSc1nc2ccccc2c(=O)n1CCCN1CCOCC1 [TG6-99-1]
3000	75	–	–	CSc1nc2ccc(Cl)cc2c(=O)n1CCC[N+](C)(C)C [TG6-59]
600	–	–	–	CCOc1cc2[nH]c(=S)n(N)c(=O)c2cc1OC [AS-278]
1000	–	–	–	O=c1c2ccccc2[nH]c(=S)n1CCCN1CCOCC1 [TG6-249]
7500	–	–	–	CN(C)CCCn1c(=S)[nH]c2c(c1=O)CCCC2 [AS-259]
2000	80	–	–	O=c1c2ccccc2[nH]c(=S)n1CCN1CCCC1 [TG6-52]
4500	90	–	–	CN(C)CCCn1c(SCC(=O)Nc2cc(-c3ccc(F)cc3)n[nH]2)nc2ccccc2c1=O [TG6-20]
2000	–	–	–	O=c1c2cc(Cl)ccc2[nH]c(=S)n1CCN1CCNCC1 [TG6-170]
5000	100	–	–	CN(C)CCCn1c(SCC(=O)Nc2nc(-c3ccc(Br)cc3)cs2)nc2ccccc2c1=O [AS158a]
> 10000	–	–	–	CCCCn1c(SCC(=O)Nc2cc(-c3ccc(C)cc3)no2)nc2ccccc2c1=O [AS153a]
> 20000	–	–	–	CN(C)CCCn1c(OCC(=O)N2CCCCC2)nc2ccccc2c1=O [TG6-74]
6000	–	–	95	CN(C)CCCn1c(SCC(=O)Nc2nc(-c3ccc(Br)cc3)cs2)nc2ccccc2c1=O [TG6-37-2]
